Reference: US9290451B2 (Hoffmann-La Roche Inc., priority 2011, dated 2016)

Columns and labels:
[1] = biological target: human CB1 receptors (Homo sapiens (Human), UniProt P21554); assay: cAMP assay, CHO cells expressing human CB1 receptors; format: cell-based; settings: CHO cells expressing human CB1, cAMP; read-out: human CB1 EC50
How it was run: (§1)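 Agonist EC50 values come from cAMP levels measured in intact CHO cells. Compounds act for 30 min at 30 °C in the presence of 1 mM IBMX, and cAMP is then detected by time-resolved energy transfer after lysis.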

[2] = biological target: human CB2 receptors (Homo sapiens (Human), UniProt P34972); assay: cAMP assay, CHO cells expressing human CB2 receptors; format: cell-based; settings: CHO cells expressing human CB2, cAMP; read-out: human CB2 EC50
Sequence of human CB2 receptors (P34972 whole entry): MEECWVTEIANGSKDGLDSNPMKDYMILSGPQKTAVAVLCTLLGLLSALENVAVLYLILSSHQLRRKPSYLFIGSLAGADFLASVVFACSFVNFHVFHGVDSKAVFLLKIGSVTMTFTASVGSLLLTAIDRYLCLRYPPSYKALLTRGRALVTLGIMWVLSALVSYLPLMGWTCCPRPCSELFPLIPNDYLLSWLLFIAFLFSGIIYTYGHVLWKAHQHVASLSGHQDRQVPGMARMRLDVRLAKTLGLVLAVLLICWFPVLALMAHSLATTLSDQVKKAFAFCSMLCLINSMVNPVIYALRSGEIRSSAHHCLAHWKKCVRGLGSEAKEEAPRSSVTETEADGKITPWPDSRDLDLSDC
How it was run: as §1

Sequence of human CB1 receptors (P21554 whole entry): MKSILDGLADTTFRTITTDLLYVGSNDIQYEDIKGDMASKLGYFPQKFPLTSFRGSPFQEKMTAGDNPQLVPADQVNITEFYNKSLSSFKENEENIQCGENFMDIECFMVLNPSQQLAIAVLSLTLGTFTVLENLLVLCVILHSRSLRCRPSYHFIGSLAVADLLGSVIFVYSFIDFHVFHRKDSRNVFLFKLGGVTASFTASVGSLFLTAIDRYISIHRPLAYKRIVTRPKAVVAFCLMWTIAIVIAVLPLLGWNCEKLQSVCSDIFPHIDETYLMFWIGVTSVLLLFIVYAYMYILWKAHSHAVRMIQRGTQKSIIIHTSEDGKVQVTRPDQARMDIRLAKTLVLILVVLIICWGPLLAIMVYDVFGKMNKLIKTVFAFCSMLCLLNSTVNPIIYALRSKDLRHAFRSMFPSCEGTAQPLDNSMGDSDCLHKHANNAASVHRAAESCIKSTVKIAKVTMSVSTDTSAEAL

SMILES	EC50 [1] [nM]	EC50 [2] [nM]
COCCOC[C@H](CC1CC1)NC(=O)c1ccc(N2CC(F)(F)C2)c(OCC2CC2)n1 [Example 157, 6-Cyclopropylmethoxy-5-(3,3-difluoro-azetidin-1-yl)-pyridine-2-carboxylic acid [(S)-2-cyclopropyl-1-(2-methoxy-ethoxymethyl)-ethyl]-amide]	> 10000	27.4
NC(=O)[C@H](CC1CC1)NC(=O)c1ccc(C2CCCC2)c(OCC2CC2)n1 [Example 107, 5-Cyclopentyl-6-cyclopropylmethoxy-pyridine-2-carboxylic acid ((S)-1-carbamoyl-2-cyclopropyl-ethyl)-amide]	1460	10.7
CC(C)C[C@H](NC(=O)c1cccc(-c2cccc(Cl)c2)n1)c1nccs1 [Example 56, 6-(3-Chloro-phenyl)-pyridine-2-carboxylic acid ((S)-3-methyl-1-thiazol-2-yl-butyl)-amide]	> 10000	173
NC(=O)[C@@H](NC(=O)c1ccc(C2CC2)c(OCC2CC2)n1)c1ccc(Cl)cc1 [Example 329, 5-Cyclopropyl-6-cyclopropylmethoxy-pyridine-2-carboxylic acid [(S)-carbamoyl-(4-chloro-phenyl)-methyl]-amide]	> 10000	21.1
O=C(N[C@@H](CC1CC1)c1nccs1)c1cccc(-c2cccc(Cl)c2)n1 [Example 60, 6-(3-Chloro-phenyl)-pyridine-2-carboxylic acid ((S)-2-cyclopropyl-1-thiazol-2-yl-ethyl)-amide]	> 10000	62.2
Cc1nc([C@](C)(NC(=O)c2ccc(C3CC3)c(S(=O)(=O)CC(C)C)n2)C2CC2)no1 [Example 381, (+)-5-Cyclopropyl-6-(2-methyl-propane-1-sulfonyl)-pyridine-2-carboxylic acid [1-cyclopropyl-1-(5-methyl-[1,2,4]oxadiazol-3-yl)-ethyl]-amide]	240	11.4
CC(C)(NC(=O)c1ccc(C(F)(F)F)c(OCC2CC2)n1)c1ncco1 [Example 129, 6-Cyclopropylmethoxy-5-trifluoromethyl-pyridine-2-carboxylic acid (1-methyl-1-oxazol-2-yl-ethyl)-amide]	> 10000	184
CNC(=O)[C@@H](NC(=O)c1cccc(-c2cccc(Cl)c2)n1)C(C)(C)C [Example 192, (S)-6-(3-Chlorophenyl)-N-(3,3-dimethyl-1-(methylamino)-1-oxobutan-2-yl)picolinamide]	1540	64.2
CNC(=O)[C@H](CC(C)C)NC(=O)c1ccc(C2CC2)c(OCC2CC2)n1 [Example 181, (S)-5-cyclopropyl-6-(cyclopropylmethoxy)-N-(4-methyl-1-(methylamino)-1-oxopentan-2-yl)picolinamide]	231	1.3
CNC(=O)[C@@H](NC(=O)c1cccc(-c2ccc(F)c(Cl)c2)n1)C(C)(C)C [Example 216, (S)-6-(3-Chloro-4-fluorophenyl)-N-(3,3-dimethyl-1-(methylamino)-1-oxobutan-2-yl)picolinamide]	116	2.7
O=C(NC1(c2nccs2)COC1)c1ccc(Br)c(OCC(F)(F)F)n1 [Example 282, 5-Bromo-6-(2,2,2-trifluoro-ethoxy)-pyridine-2-carboxylic acid (3-thiazol-2-yl-oxetan-3-yl)-amide]	> 10000	368
CC(C)(NC(=O)c1ccc(C2CC2)c(OCC2CC2)n1)c1ccccn1 [Example 285, 5-Cyclopropyl-6-cyclopropylmethoxy-pyridine-2-carboxylic acid (1-methyl-1-pyridin-2-yl-ethyl)-amide]	703	31.6
Cc1ccc(C(=O)NN2CCCCC2)nc1OCC1CC1 [Example 47, 6-Cyclopropylmethoxy-5-methyl-pyridine-2-carboxylic acid piperidin-1-ylamide]	> 10000	138
CCC(CC)(NC(=O)c1ccc(C2CCCC2)c(OCC2CC2)n1)C(=O)NC [Example 111, 5-Cyclopentyl-6-cyclopropylmethoxy-pyridine-2-carboxylic acid (1-ethyl-1-methylcarbamoyl-propyl)-amide]	> 10000	6.9
CNC(=O)C(C)(C)NC(=O)c1ccc(C2CC2)c(-c2cccc(Cl)c2)n1 [Example 67, 6-(3-Chloro-phenyl)-5-cyclopropyl-pyridine-2-carboxylic acid (1-methyl-1-methylcarbamoyl-ethyl)-amide]	> 10000	797
CCC(CC)(NC(=O)c1ccc(C(F)(F)F)c(OCC2CC2)n1)C(=O)O [Example 252, 2-[(6-Cyclopropylmethoxy-5-trifluoromethyl-pyridine-2-carbonyl)-amino]-2-ethyl-butyric acid]	> 10000	552
COC(=O)[C@H](CC1CC1)NC(=O)c1ccc(C2CC2)c(OCC2CC2)n1 [Example 258, (S)-3-Cyclopropyl-2-[(5-cyclopropyl-6-cyclopropylmethoxy-pyridine-2-carbonyl)-amino]-propionic acid methyl ester]	> 10000	7.1

SMILES	EC50 [1] [nM]	EC50 [2] [nM]
CC(C)(NC(=O)c1ccc(N2CC(F)(F)C2)c(OCC(F)(F)F)n1)c1nccs1 [Example 288, 5-(3,3-Difluoro-azetidin-1-yl)-6-(2,2,2-trifluoro-ethoxy)-pyridine-2-carboxylic acid (1-methyl-4-thiazol-2-yl-ethyl)-amide]	> 10000	163
Cc1nc([C@H](CC2CC2)NC(=O)c2cccc(-c3cccc(Cl)c3)n2)no1 [Example 38]	> 10000	99.7
CC(C)C[C@H](NC(=O)c1ccc(NC2CC2)c(OCC2CC2)n1)C(N)=O [Example 134, 5-Cyclopropylamino-6-cyclopropylmethoxy-pyridine-2-carboxylic acid ((S)-1-carbamoyl-3-methyl-butyl)-amide]	151	5.1
CC(C)(NC(=O)c1ccc(C2CCCC2)c(OCC2CC2)n1)c1nccs1 [Example 55, 5-Cyclopentyl-6-cyclopropylmethoxy-pyridine-2-carboxylic acid (1-methyl-1-thiazol-2-yl-ethyl)-amide]	1390	31.7
Cc1ccc(C(=O)NN2CCCCC2)nc1-c1cccc(Cl)c1 [Example 52, 6-(3-Chloro-phenyl)-5-methyl-pyridine-2-carboxylic acid piperidin-1-yl-amide]	> 10000	322
O=C(NC(c1ccccn1)C(F)(F)F)c1ccc(N2CC(F)(F)C2)c(OCC2CC2)n1 (stereo not drawn) [Example 224, 6-Cyclopropylmethoxy-5-(3,3-difluoro-azetidin-1-yl)-pyridine-2-carboxylic acid (2,2,2-trifluoro-1-pyridin-2-yl-ethyl)-amide]	648	22.2
Cc1nc(C(C)(C)NC(=O)c2ccc(C(F)(F)F)c(OCC3CC3)n2)no1 [Example 120, 6-Cyclopropylmethoxy-5-trifluoromethyl-pyridine-2-carboxylic acid [1-methyl-1-(5-methyl-[1,2,4]oxadiazol-3-yl)-ethyl]-amide]	> 10000	259
CC1(C)CCc2ccc(C(=O)NC[C@](C)(O)C3CC3)nc2C1 [Example 143, 7,7-Dimethyl-5,6,7,8-tetrahydro-quinoline-2-carboxylic acid ((R)-2-cyclopropyl-2-hydroxy-propyl)-amide]	> 10000	410
CC(C)(NC(=O)c1ccc(C2CC2)c(OCC2CC2)n1)c1ncon1 [Example 73, 5-Cyclopropyl-6-cyclopropylmethoxy-pyridine-2-carboxylic acid (1-methyl-1-[1,2,4]oxadiazol-3-yl-ethyl)-amide]	1320	40.7
Cc1ccc(C(=O)N2CCCCC2)nc1S(=O)(=O)N1CCCCC1 [Example 25, [5-Methyl-6-(piperidine-1-sulfonyl)-pyridin-2-yl]-piperidin-1-yl-methanone]	> 10000	291
CCC(CC)(NC(=O)c1ccc(C2CC2)c(O[C@@H](CCO)C(F)(F)F)n1)C(=O)NC [Example 319, 5-Cyclopropyl-6-((S)-3-hydroxy-1-trifluoromethyl-propoxy)-pyridine-2-carboxylic acid (1-ethyl-1-methylcarbamoyl-propyl)-amide]	> 10000	344
CC1(NC(=O)c2ccc(N3CC(F)(F)C3)c(OCC3CC3)n2)COC1 [Example 370, 6-Cyclopropylmethoxy-5-(3,3-difluoro-azetidin-1-yl)-pyridine-2-carboxylic acid (3-methyl-oxetan-3-yl)-amide]	> 10000	96.4
Cc1nc(C(C)(C)NC(=O)c2ccc3c(n2)CC(C)(C)CC3)no1 [Example 144, 7,7-dimethyl-N-(2-(5-methyl-1,2,4-oxadiazol-3-yl)propan-2-yl)-5,6,7,8-tetrahydroquinoline-2-carboxamide]	739	22.8
NC(=O)[C@H](CC1CC1)NC(=O)c1ccc(C2CC2)c(OCC2CC2)n1 [Example 98, 5-Cyclopropyl-6-cyclopropylmethoxy-pyridine-2-carboxylic acid ((S)-1-carbamoyl-2-cyclopropyl-ethyl)-amide]	> 10000	27.6
Cc1nc([C@H](CC2CC2)NC(=O)c2ccc(C3CC3)c(OCC(F)(F)C(F)(F)F)n2)no1 [Example 300, 5-Cyclopropyl-6-(2,2,3,3,3-pentafluoro-propoxy)-pyridine-2-carboxylic acid [(S)-2-cyclopropyl-1-(5-methyl-[1,2,4]oxadiazol-3-yl)-ethyl]-amide]	> 10000	31.8
CNC(=O)[C@@H](NC(=O)c1ccc(N2CC(F)(F)C2)c(OCC2CC2)n1)C(C)(C)C [Example 208, (S)-6-(Cyclopropylmethoxy)-5-(3,3-difluoroazetidin-1-yl)-N-(3,3-dimethyl-1-(methylamino)-1-oxobutan-2-yl)picolinamide]	> 10000	8.9
